Results on 12 compounds are retold here after patent US10035778B2, “Meta-azacyclic amino benzoic acid derivatives as pan integrin antagonists” (Saint Louis University, priority 2015, dated 2018).

As usually defined, the IC50 is the concentration needed to halve the response being measured.

Recombinant human integrin αvβ8, sequence (P06756 31-992): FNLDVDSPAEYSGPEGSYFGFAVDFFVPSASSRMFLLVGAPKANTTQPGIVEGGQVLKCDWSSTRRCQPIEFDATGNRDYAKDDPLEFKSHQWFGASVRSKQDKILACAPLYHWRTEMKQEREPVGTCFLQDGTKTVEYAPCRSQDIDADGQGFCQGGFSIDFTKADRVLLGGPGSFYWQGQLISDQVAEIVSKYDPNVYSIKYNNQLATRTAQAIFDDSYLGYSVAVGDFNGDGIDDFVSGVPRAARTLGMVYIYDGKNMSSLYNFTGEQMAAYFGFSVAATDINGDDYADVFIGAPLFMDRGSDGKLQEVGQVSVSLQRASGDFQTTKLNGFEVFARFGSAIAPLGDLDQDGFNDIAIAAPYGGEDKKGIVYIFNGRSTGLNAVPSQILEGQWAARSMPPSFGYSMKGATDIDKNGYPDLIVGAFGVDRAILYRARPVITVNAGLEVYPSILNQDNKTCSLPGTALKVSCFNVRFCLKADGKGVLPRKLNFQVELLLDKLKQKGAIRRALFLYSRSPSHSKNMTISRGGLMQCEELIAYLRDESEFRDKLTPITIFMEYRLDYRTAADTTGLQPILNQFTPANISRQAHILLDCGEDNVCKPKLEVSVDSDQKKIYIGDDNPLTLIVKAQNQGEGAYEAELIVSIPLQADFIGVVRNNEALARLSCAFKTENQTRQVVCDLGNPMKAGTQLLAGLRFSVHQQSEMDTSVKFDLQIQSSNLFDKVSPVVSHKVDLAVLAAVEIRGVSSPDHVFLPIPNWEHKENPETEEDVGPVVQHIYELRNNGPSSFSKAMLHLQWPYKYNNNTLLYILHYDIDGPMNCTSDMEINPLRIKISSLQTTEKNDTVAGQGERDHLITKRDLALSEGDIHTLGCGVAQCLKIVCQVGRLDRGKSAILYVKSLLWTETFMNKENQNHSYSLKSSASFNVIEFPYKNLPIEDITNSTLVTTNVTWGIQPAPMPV
Recombinant human integrin αvβ8, sequence (P26012 43-684): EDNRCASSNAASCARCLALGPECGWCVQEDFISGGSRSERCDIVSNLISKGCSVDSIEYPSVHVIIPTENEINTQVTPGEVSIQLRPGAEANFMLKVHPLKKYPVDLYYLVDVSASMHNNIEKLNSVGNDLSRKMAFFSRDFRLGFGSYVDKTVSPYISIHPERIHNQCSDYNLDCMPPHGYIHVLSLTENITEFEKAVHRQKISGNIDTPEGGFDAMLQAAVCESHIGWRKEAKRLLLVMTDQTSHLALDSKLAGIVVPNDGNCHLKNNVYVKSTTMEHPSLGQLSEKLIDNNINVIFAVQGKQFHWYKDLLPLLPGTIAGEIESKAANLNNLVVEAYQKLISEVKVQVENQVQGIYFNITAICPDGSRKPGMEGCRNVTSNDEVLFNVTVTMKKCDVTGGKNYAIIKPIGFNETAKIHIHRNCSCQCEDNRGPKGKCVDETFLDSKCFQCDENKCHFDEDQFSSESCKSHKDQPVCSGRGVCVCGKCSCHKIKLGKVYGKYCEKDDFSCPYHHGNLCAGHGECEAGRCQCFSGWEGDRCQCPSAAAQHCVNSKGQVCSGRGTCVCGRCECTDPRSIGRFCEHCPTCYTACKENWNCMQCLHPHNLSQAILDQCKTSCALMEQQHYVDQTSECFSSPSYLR

For this test, the target named is Recombinant human integrin αvβ8 (Homo sapiens (Human), UniProt P06756+P26012). The test can be described thus: Solid Phase Receptor Assay (SPRA) for αvβ8 function. The test is classed as binding. The settings on record: LAP-coated plate. How it is done:
6. Solid Phase Receptor Assay (SPRA) for αvβ8 Function
Recombinant human LAP protein (R&D Systems, Inc, 246-LP) diluted to 0.5 μg/mL in TBS+ buffer (25 mM Tris pH 7.4, 137 mM NaCl, 2.7 mM KCl, 1 mM CaCl2, 1 mM MgCl2, 1 mM MnCl2) was added to wells (50 μl/well) of a 96-well half-well transparent microtiter plate (Greiner 675061), and incubated overnight at 4° C. Wells were washed 3 times with 150 μL TBS+ and 150 μL of blocking buffer (TBS+ with 1% bovine serum albumin, Sigma A7906) were added. The plate was incubated for 1 hr at 37° C. and then washed 3× with TBS+. Recombinant human integrin αvβ8 (R&D Systems, 4135-AV) was diluted to 0.1 μg/mL in TBS+/0.1% bovine serum albumin. Compounds were diluted 1:100 into the integrin solution and 50 μL added to empty wells of the washed LAP-coated plate according to a standard template with each sample repeated in triplicate. After incubation for two hours at room temperature, the plate was washed 3× with 150 μL of TBS+. To each well, 50 μL of biotinylated anti-αv antibody (R&D Systems, BAF1219) at 1 μg/mL in TBS+/0.1% BSA were added and the plate was covered and incubated for 1 hr at room temperature. After washing the plate 3× with 150 μL of TBS+ buffer, 50 μL of streptavidin-conjugated horseradish peroxidase (R&D Systems, DY998) diluted in TBS+ blocking buffer were added to the wells and the plate incubated for 20 min at room temperature. The plate was washed 3× with TBS+ followed by 50 μL of TMB substrate (Sigma T4444) added to each well and the plate incubated for 20 min at room temperature. Plates were read by colorimetric detection at 650 nm wavelength using a Tecan Safire II plate reader. Concentration-response curves were constructed by non-linear regression (best fit) analysis, and IC50 values were calculated for each compound.
Turning to `Cc1cc(Cl)cc([C@@H](CC(=O)O)NC(=O)CNC(=O)c2cc(O)cc(NC3=NCC(O)CN3)c2)c1O` (stereo partly drawn) [Example C10, reference compound], the IC50 was 5 nM.

With `Cc1ccc(O)c(C(CC(=O)O)NC(=O)CNC(=O)c2cccc(NC(=N)N)c2)c1` (stereo not drawn) [Example C8, reference compound], the IC50 turned out to be 18 nM.

On to `O=C(O)C[C@H](NC(=O)CNC(=O)c1cc(O)cc(NC2=NCC(O)CN2)c1)c1cc(Br)cc(C(F)F)c1` (stereo partly drawn) [Example 4, (3S)-3-[3-bromo-5-(difluoromethyl)phenyl)-3-(2-(3-hydroxy-5-((5-hydroxy-1,4,5,6-tetrahydropyrimidin-2-yl)amino)benzamido)acetamido]propanoic acid], for which the IC50 turned out to be 0.4 nM.

`Cc1cc(C)cc(C(CC(=O)O)NC(=O)CNC(=O)c2cccc(NC(=N)N)c2)c1` (stereo not drawn) [Example C4, reference compound]: the IC50 came out at 6 nM.

With `N=C(N)Nc1cccc(C(=O)NCC(=O)NC(CC(=O)O)c2cc(F)cc(C(F)(F)F)c2)c1` (stereo not drawn) [Example C9, reference compound], the half-inhibitory concentration (IC50) came out at 6 ± 3 nM.

Consider `Cc1cc(Cl)cc([C@@H](CC(=O)O)NC(=O)CNC(=O)c2cccc(NC3=NCCN3)c2)c1O` [Example C11, reference compound], for which the IC50 is 11 nM.

For the compound `N=C(N)Nc1cccc(C(=O)NCC(=O)NC(CC(=O)O)c2ccccc2)c1` (stereo not drawn) [Example C5, reference compound], the IC50 was determined as 66 nM.

With `O=C(O)CC(NC(=O)CNC(=O)c1cc(O)cc(NC2=NCC(O)CN2)c1)c1cc(Br)cc(Br)c1O` (stereo not drawn) [Example C7, reference compound], the IC50 amounted to 7 nM.

On to `O=C(O)C[C@H](NC(=O)CNC(=O)c1cc(O)cc(NC2=NCC(O)CN2)c1)c1ccccc1` (stereo partly drawn) [Example C2, reference compound], for which the IC50 was 5 nM.

Consider `O=C(O)C[C@H](NC(=O)CNC(=O)c1cc(O)cc(NC2=NCC(O)CN2)c1)c1cc(Cl)cc(Br)c1O` (stereo partly drawn) [Example C1, reference compound], for which the concentration for half-maximal inhibition (IC50) was found to be 3 ± 2 nM.

For `O=C(O)CC(NC(=O)CNC(=O)c1cc(O)cc(NC2=NCC(O)CN2)c1)c1cc(Cl)cc(Cl)c1O` (stereo not drawn) [Example C3, reference compound], the concentration for half-maximal inhibition (IC50) was 2 nM.

In the case of `Cc1ccc(O)c(C(CC(=O)O)NC(=O)CNC(=O)c2cc(O)cc(NC3=NCC(O)CN3)c2)c1` (stereo not drawn) [Example C6, reference compound], the IC50 turned out to be 9 ± 6 nM.
